Results as given in PMC8333062, “Chemical tools for epichaperome-mediated interactome dysfunctions of the central nervous system” (Nature Communications, 2021).
Where “and” joins values, the source holds several entries; their conditions need not be identical. Equal values may be shown once.

What was measured:
[1] = PET biodistribution in human patients; assay type: in vivo; conditions: human, in vivo
Excerpt: To evaluate the brain permeability of PU-HZ151 into the human brain, we produced the [^124I]-labeled derivative and performed serial PET imaging studies of human patients (n = 3; NCT03371420), and derived time-activity (i.e. standard uptake values (SUV) versus time post-administration) curves for the brain and various other tissues (Fig. 2b). PET data obtained for [^124I]-labeled PU-H71 (NCT01269593 and ref. [39]) were used for comparison. […] The AUC values recorded for [^124I]-PU-HZ151 in the human brain post-single injection are at par with what was measured in the human muscle and lung, supportive of uptake of PU-HZ151 into the human brain (Fig. 2b). Magnetic resonance imaging (MRI), by offering structural and soft tissue resolution, confirmed the presence of PU-HZ151 in the brain tissue (Fig. 2d). […] The secondary outcome of the trial was to measure adverse events following administration of the probe. Safety of [^124I]-PU-HZ151 in human subjects was assessed by evaluation of the incidence, nature, and severity of adverse events and serious adverse events (Supplementary Note 2).
[^124I]-PU-HZ151 and [^124I]-PU-H71 were synthesized in-house by the institutional cyclotron core facility at high specific activity. Analyses of the epichaperome by positron emission tomography (PET-CT) were performed as previously reported. In brief, research PET-CT was performed using an integrated PET-CT scanner (Discovery DSTE, GE Healthcare). CT scans for attenuation correction and anatomic coregistration were performed before tracer injection. Patients received 5 mCi of [^124I]-PU-HZ151 or [^124I]-PU-H71 by peripheral vein over 2 min. PET data were reconstructed using a standard ordered subset expected maximization iterative algorithm. Emission data were corrected for scatter, attenuation, and decay. PET scans were performed 0.5, 3, and 24 h after tracer administration. Numbers in the scale bar indicate upper and lower standardized uptake value (SUV) thresholds that define pixel intensity on PET images. SUV is a pixel value, derived from PET measurements of in vivo radioactivity, quantified as the fraction of the radioactive dose injected found in a cubic centimeter of measured tissue multiplied (ie, normalized) by patient body weight (grams). Maximum Intensity Projection (MIP) 3D images were constructed from the voxels with maximum intensity that fell in the way of parallel rays traced from the viewpoint to the plane of projection. At each pixel the highest data value encountered along the corresponding viewing ray was determined. MRI scans were obtained as part of routine clinical care using hardware and standard data acquisition and processing methods. MRI was obtained using a 1.5T magnet (Signa HDxt, GE Healthcare, Milwaukee, WI). […] Gadopentetate dimeglumine (Magnevist, HealthCare Pharmaceuticals Inc.) was injected though a peripheral angiocatheter at a standard dose (0.2 mL kg^−1 body weight, 40 mL, 2 cc s^−1). For precise localization of tracer uptake to specific neuroanatomical structures, PET brain images were fused to MRI brain images using the Integrated Registration application of the AW Suite software package (GE Healthcare, Milwaukee, Wisconsin, USA).

[2] = Plasma pharmacokinetics in human patients; assay type: in vivo; conditions: order Patient#1, #2, #3, Mean
[3] = Adverse events in human patients (NCT03371420); assay type: in vivo; conditions: single microdose iv
lung carcinoma = assay: PET in a lung cancer patient; assay type: in vivo, human
[4] = test system: intracranial MDA-MB-468 tumors; assay: PET of intracranial tumors; assay type: in vivo, mouse; parameters: radioactivity, Blood / radioactivity, Brain, normal / radioactivity, Tumor - intracranial: unit: %ID/g (percent injected dose per gram); conditions: for radioactivity, Blood / radioactivity, Brain, normal / radioactivity, Tumor - intracranial: mean n=5
Method: We next investigated if the CNS-directed epichaperome probes detect epichaperome positivity and engage the target in brain tumors. MDA-MB-468 is a triple-negative breast cancer cell line, an aggressive breast cancer subtype with high propensity of metastasizing to the brain. We therefore initiated our studies with intracranial MDA-MB-468 tumors. We imaged the real-time whole-body distribution of [^124I]-labeled PU-HZ151 ([^124I]-PU-HZ151) between 1 h and 72 h to observe that PU-HZ151 was evenly distributed throughout the body with brain exposure equaling that of other tissues and non-metabolizing organs (see PET image at 1 h, Fig. 4a). A rapid clearance from HSP90 (present throughout the brain) but not epichaperome (present only in the tumor), provided unambiguous visualization and quantitation of epichaperome positivity through PET imaging. […] We also confirmed target positivity, and specific target and probe co-localization, through radiography and associated hematoxylin and eosin staining of brain tissue (Fig. 4c–e).
(§1) Orthotopic GBM xenografts in mice were established by injection of 5 × 10^5 cells in 2 μL PBS. For PET analyses, GSCs were injected into the striatum. Boreholes were made using a small hand drill. Mice were imaged with MRI (typically ~ 2–3 weeks after injection), and – if tumors were visible on MRI – they were imaged by micro-PET using the [^124I]-radiolabeled PU-HZ151. When mice started showing symptoms of progressing GBM, they received a microdose of [^124I]-PU-HZ151 and serial PET scans were performed at 20 mins, 6, 24, 48, 72, and 96 h post tracer administration using a dedicated small-animal PET scanner (Focus 120 microPET; Siemens Medical Solutions, USA, formerly Concorde Microsystems, Knoxville, TN). Mice were maintained under 2% isoflurane (Baxter Healthcare, Deerfield, IL) anesthesia in oxygen at 2 L min^−1 during the entire scanning period. To reduce the thyroid uptake of free iodide arising from metabolism of tracer, mice received 0.01% potassium iodide solution in their drinking water starting 48 h prior to tracer administration. For PET imaging, each mouse was administered [^124I]-PU-HZ151 (15 µCi g^−1, 3 µCi µL^−1 in saline, Hospira, 0.9% sodium chloride in water) via the tail vein or ip. Approximately 5 min prior to PET acquisition, mice were anesthetized by inhalation of a mixture of isoflurane (Baxter Healthcare, Deerfield, IL, USA; 2% isoflurane, 2 L min^−1 medical air) and positioned on the scanner bed. Anesthesia was maintained using a 1% isoflurane-O2 mixture. PET data for each mouse was recorded using static scans of 15 min and acquired at the indicated times post injection. Quantification and %ID g^−1 values were calculated by manually drawing regions of interests in three different frames and determining the average values using ASI Pro VM™ MicroPET Analysis software (Siemens Medical Solutions, Knoxville, TX).

GBM#19 = assay: PET of intracranial tumors; assay type: in vivo, mouse; conditions: microdose iv
Method: (§2) To test if our probes can detect and differentiate in vivo the epichaperome-dependent tumors from those that are not, we next performed intracranial xenotransplantation of GSCs from epichaperome-high (GSC#8), -medium (GSC#7; GSC#19) and -negative (GSC#5) specimens. For comparison we used intracranially xenotransplanted MDA-MB-468 tumors (Fig. 7a).
as §1

GBM#5 = assay: PET of intracranial tumors; assay type: in vivo, mouse; conditions: microdose iv
Method: as §2, §1

GBM#7 = assay: PET of intracranial tumors; assay type: in vivo, mouse; conditions: microdose iv
Method: as §2, §1

GBM#8 = assay: PET of intracranial tumors; assay type: in vivo, mouse; conditions: microdose iv
Method: as §2, §1

[5] = test system: intracranial MDA-MB-468 tumors; assay: PET of intracranial tumors; assay type: in vivo, mouse; parameters: unit: %ID/g (percent injected dose per gram); conditions: 96 h, mean n=5

biological half-life in normal brain tissue [1]: less than 0.5 hours | 2nd Component Half-time [2]: 1.87 h and 2.97 h and 2.35 h | radioactivity, Brain-gray (lung carcinoma; 0.5 h): 1.16 SUV | radioactivity, Lung (lung carcinoma; 0.5 h): 0.56 SUV | radioactivity, Muscle (lung carcinoma; 0.5 h): 0.72 SUV | radioactivity, Tumor (lung carcinoma; 0.5 h): 2.52 SUV | radioactivity, Brain-gray (lung carcinoma; 3 h): 0.41 SUV | radioactivity, Lung (lung carcinoma; 3 h): 0.29 SUV | radioactivity, Muscle (lung carcinoma; 3 h): 0.32 SUV | radioactivity, Tumor (lung carcinoma; 3 h): 2.1 SUV | radioactivity, Brain-gray (lung carcinoma; 24 h): 0.03 SUV | radioactivity, Lung (lung carcinoma; 24 h): 0.07 SUV | radioactivity, Muscle (lung carcinoma; 24 h): 0.09 SUV | radioactivity, Tumor (lung carcinoma; 24 h): 0.79 SUV | radioactivity, Blood ([4]; 1 h): 1.8445 | radioactivity, Brain, normal ([4]; 1 h): 0.4287 | radioactivity, Tumor - intracranial ([4]; 1 h): 2.4287 | radioactivity, Blood ([4]; 2 h): 0.7280 | radioactivity, Brain, normal ([4]; 2 h): 0.0550 | radioactivity, Blood ([4]; 6 h): 0.2100 | radioactivity, Brain, normal ([4]; 6 h): 0.1400 | radioactivity, Tumor - intracranial ([4]; 6 h): 0.6541 | radioactivity, Blood ([4]; 24 h): 0.0110 | radioactivity, Brain, normal ([4]; 24 h): 0.0010 | radioactivity, Tumor - intracranial ([4]; 24 h): 0.1284 | radioactivity, Blood ([4]; 48 h): 0.0060 | radioactivity, Brain, normal ([4]; 48 h): 0.0000 | radioactivity, Tumor - intracranial ([4]; 48 h): 0.0885 | radioactivity, Blood ([4]; 72 h): 0.0040 | radioactivity, Brain, normal ([4]; 72 h): 0.0000 | radioactivity, Tumor - intracranial ([4]; 72 h): 0.0351 | radioactivity, Brain, normal ([4]; 96 h): 0.0000 | radioactivity, Blood [5]: 0.0050
Compound: CC(C)(C)CNCCn1c(Sc2cc3c(cc2[124I])OCO3)nc2c(N)ncnc21 [[124I]-PU-HZ151]
2nd Component Half-time ([2]; then text value): 1.87 h and 2.97 h and 2.2 h and 2.35 h and 2.35 ± 0.563 h | area under the curve (AUC) ([2]; plasma): 0.0225 (%ID g-1)h and 0.0199 (%ID g-1)h and 0.0127 (%ID g-1)h and 0.0184 (%ID g-1)h | probe-related toxicity [3]: No radioiodinated probe-related toxicity was evident | AUC^tumor/blood ([4]; PET, microdose iv): 1303 | AUC^tumor/blood (GBM#19): 444 | AUC^tumor/blood (GBM#5): 143 | AUC^tumor/blood (GBM#7): 893 | AUC^tumor/blood (GBM#8): 80
